These results are taken from patent US20260041653A1, “AN HDAC INHIBITOR FOR TREATING CANCER WITH A MODIFIED STK11 ACTIVITY OR EXPRESSION” (Tango Therapeutics, Inc., priority 2022, published 2026).

Entries after “also recorded” stand apart in the source; their conditions may differ.

In one series the target is T1, HDAC1 (Homo sapiens, UniProt Q13547).
T1 construct: expressed in transfected cells
The series can be described thus: Cellular NanoBRET target engagement assay, HDAC1. Particulars: in intact cells. It counts as cell-based. Background: BRET reads energy transfer from a luciferase to a nearby fluorophore.

The next series can be described thus: Predicted human PK. Conditions: calculated from rodent and dog data. As to the method:
The human PK parameters for a dose of Compound I that is predicted to be efficacious were calculated based on the data from rodent and dog studies and are presented in Table 6.

The subject of the next series is H3K9Ac. The series can be described thus: H3K9Ac in MC38 tumor tissue by Western blot. In kind it is in vivo, mouse. Conditions: 3, 10, 30 mg/kg for 7 days; tissue 8 hours post last dose; normalized to total histone H3. As to the method: Formation and accumulation of acetylated histone 3 lysine 9 (H3K9Ac) in MC38 tumor tissue from mouse after treatment with Compound I was determined by Western blot. Briefly, female C57BL/6 mice with MC38 tumors were treated with Compound I for 7 days at the indicated dose (3 mg/kg, 10 mg/kg, and 30 mg/kg). Tissue was collected 8 hours post last dose and the H3K9Ac accumulation was quantified by Western blot in (FIG. 14A) and normalized to total histone H3 (FIG. 14B).
Background: A western blot detects proteins with antibodies after separation by electrophoresis.

The nature of series [1]: Solubility in hERG assay medium. Particulars: aqueous buffer, kinetic from dmso stock, 0.3% DMSO, pH 6.9. It counts as physicochemical. The method, then:
The effects of Compound I on a cloned human ether-à-go-go-related gene (hERG) potassium channels stably expressed in human embryonic kidney (HEK) 293 cells were measured using manual patch-clamp technique. Briefly, Compound I was soluble at 100 uM in 0.3% DMSO, pH 6.9. A does range-finding (DRF) assay was performed with Compound I at 3. 30, and 100 uM concentrations.
On the technique in general: The hERG channel carries a current that helps repolarise heart muscle cells.

The test system of another series is CoREST complex. Put plainly: Fluorescence-based deacetylase assay of cell-derived HDAC complex, CoREST. It counts as biochemical. From the text:
The HDAC inhibition was profiled in a fluorescence-based deacetylase assay.

Series [2] can be described thus: Tolerated and efficacious dose ranges in vivo. As to the method: Briefly, a colony forming unit assay was performed in vitro to evaluate the impact of HDAC inhibitors on the viability of erythroid and myeloid cells. Cells were treated with a dose response of each compound for 14 days. Cell colonies were quantified at the end of the experiment and compared to a solvent control. The efficacious dose range of Compound I was also plotted (the range was between 3 mg/kg and 75 mg/kg) (FIG. 12A). The IC50s for each compound were calculated from the erythroid and myeloid colony formation unit assay. These IC50s were normalized to the compound's potency against HDAC1 in the cellular NanoBRET assay to allow for head-to-head compound comparison (Table 4-1).
Compound I concentrations to HDAC1 or HDAC3 inhibition in vivo were plotted in FIG. 12D. Shaded boxes indicate tolerated and efficacious dose ranges of Compound I. Non-tolerated exposures were over 150 mg/kg.

The next series deals with CYP1A2 (Homo sapiens, UniProt P05177). Put plainly: Metabolism by recombinant human CYP1A2. In kind it is in vitro ADME. Conditions: read-out: terminal half life (T1/2), rh CYP1A2. The method, then: (§1) Drug metabolizing enzymes involved in the biotransformation of Compound I were investigated using human liver microsomes (HLM) and recombinant enzymes. Compound I was stable in HLMs (>93% remaining after 240 minutes of incubation with HLM protein concentration at 0.6 mg/ml). CYP selective inhibitor experiments were not performed due to lack of appreciable Compound I turnover.

Another series addresses CYP2C9 (Homo sapiens, UniProt P11712). The series can be described thus: Metabolism by recombinant human CYP2C9. In kind it is in vitro ADME. Particulars: read-out: terminal half life (T1/2), rh CYP2C9. As to the method:
as §1

For a further series, the target named is T2, HDAC10 (Homo sapiens, UniProt Q969S8).
T2 construct: expressed in transfected cells
The series can be described thus: Cellular NanoBRET assay, HDAC10. It counts as cell-based.

For series [3], the system named is CT26_STK11KO tumor (KRAS G12D). The series can be described thus: Anti-tumor efficacy in CT26_STK11KO colon carcinoma model. Particulars: for ORR % / TGI %: CT26 STK11KO. In kind it is in vivo, mouse. As to the method:
In this example, the anti-tumor activity of a combination treatment of anti-PD1 antibody with Compound I was determined in vivo in STK11-deleted syngeneic mouse models.
Briefly, mice were inoculated with STK11-deleted CT26 (murine colorectal carcinoma cell line) tumor model in a manner similar to that described in Example 1. The tumor model was resistant to murine anti-PD1 antibody by knockout of the STK11. Mice were treated with Compound I orally once daily and with anti-PD1, anti-IgG2a control, or anti-PD1 control twice per week as indicated. Tumor volume and survival was monitored over the course of treatment and plotted by individual animal for tumor volume (FIG. 7A) and by group for survival (FIG. 7B).
An in vivo anti-tumor efficacy of combination treatment of Anti-PD1 and Compound I in a CT26 mouse model was evaluated. CT26 is a colon carcinoma cell line with an endogenous KRAS G12D mutation. The experiment was performed in the parental/wild type line and in a line engineered with an STK11 knock-out (CT26_STK11KO) resulting in an anti-PD1 resistant model with lower CD8+ T cell infiltration.
In each of the experiments, the animals (8/group) were divided into four groups. Group I was treated with a control antibody Anti-IgG2, group 2 was treated with Compound I 75 mg/kg, group 3 was treated with anti-PD1 antibody, and group 4 was treated with Compound I 75 mg/kg and anti-PD1 antibody. Tumor volume and survival was monitored over the course of treatment. For the CT26_STK11KO model, the tumor volume was plotted by individual animal (FIG. 15A) and by treatment group (FIG. 15B). Survival was plotted by treatment group (FIG. 15C).
An in vivo anti-tumor efficacy of combination treatment of anti-CTLA4 and Compound I in a CT26 mouse model was evaluated. CT26 is a colon carcinoma cell line with an endogenous KRAS G12D mutation. The experiment was performed in the parental/wild type line and in a line engineered with an STK11 knock-out (CT26_STK11KO) resulting in an anti-CTLA4-resistant model.
An in vivo anti-tumor efficacy of double combination treatment of Anti-CTLA4 and Compound I in a CT26 syngeneic model was performed. CT26 is a colon carcinoma cell line. The experiment was also performed with an STK11-null CT26 model, this model is CTLA4 resistant.
There were 8 mice per group. Group I was treated with a control antibody Anti-IgG2, group 2 was treated with Compound I 75 mg/kg, group 3 was treated with anti-CTLA4 antibody, and group 4 was treated with Compound I 75 mg/kg and anti-CTLA4 antibody. Tumor volume was monitored over the course of treatment. The tumor volume was plotted by treatment group (FIG. 16A), and the individual animals were plotted for group 1 and group 4 (FIG. 16B), for the parental model. The tumor volume was plotted by treatment group (FIG. 16C), and the individual animals were plotted for group 1 and group 4 (FIG. 16D), for the STK11 knockout model.

Where [4] appears, read: Compound I 75 mg/kg QD alone, second of two values (two experiments, Examples 14 and 15).
Setting [5] is: Compound I 75 mg/kg QD, antibodies 10 mg/kg, for Compound I alone the first of two printed values.

Sequence of CYP2C9 (P11712 whole entry): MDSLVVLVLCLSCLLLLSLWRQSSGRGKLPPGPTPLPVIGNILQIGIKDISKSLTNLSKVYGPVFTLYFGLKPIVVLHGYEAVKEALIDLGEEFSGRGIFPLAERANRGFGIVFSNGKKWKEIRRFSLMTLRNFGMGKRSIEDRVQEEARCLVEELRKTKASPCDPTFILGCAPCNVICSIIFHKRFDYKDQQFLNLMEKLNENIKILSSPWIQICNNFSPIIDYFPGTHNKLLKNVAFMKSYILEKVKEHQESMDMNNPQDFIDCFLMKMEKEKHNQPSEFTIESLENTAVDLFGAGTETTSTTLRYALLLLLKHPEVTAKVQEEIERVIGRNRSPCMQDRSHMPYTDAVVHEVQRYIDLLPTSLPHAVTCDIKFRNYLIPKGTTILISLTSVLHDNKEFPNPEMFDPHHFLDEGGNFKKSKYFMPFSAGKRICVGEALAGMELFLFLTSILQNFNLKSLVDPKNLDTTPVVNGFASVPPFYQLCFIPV
T1 sequence (Q13547 whole entry): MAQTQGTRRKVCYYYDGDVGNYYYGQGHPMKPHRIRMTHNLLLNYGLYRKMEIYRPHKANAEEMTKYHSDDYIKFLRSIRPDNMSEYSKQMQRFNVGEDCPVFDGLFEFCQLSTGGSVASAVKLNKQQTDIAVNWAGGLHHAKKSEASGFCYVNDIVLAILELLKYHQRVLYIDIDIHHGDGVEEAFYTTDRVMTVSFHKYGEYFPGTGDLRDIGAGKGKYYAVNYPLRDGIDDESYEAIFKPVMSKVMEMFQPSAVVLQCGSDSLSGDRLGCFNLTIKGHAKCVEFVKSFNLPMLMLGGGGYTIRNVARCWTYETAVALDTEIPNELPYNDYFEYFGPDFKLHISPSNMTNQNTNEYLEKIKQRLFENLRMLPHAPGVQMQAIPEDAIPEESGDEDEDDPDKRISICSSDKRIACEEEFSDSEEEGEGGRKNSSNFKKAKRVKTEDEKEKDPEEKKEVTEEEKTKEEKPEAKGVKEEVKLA
T2 sequence (Q969S8 whole entry): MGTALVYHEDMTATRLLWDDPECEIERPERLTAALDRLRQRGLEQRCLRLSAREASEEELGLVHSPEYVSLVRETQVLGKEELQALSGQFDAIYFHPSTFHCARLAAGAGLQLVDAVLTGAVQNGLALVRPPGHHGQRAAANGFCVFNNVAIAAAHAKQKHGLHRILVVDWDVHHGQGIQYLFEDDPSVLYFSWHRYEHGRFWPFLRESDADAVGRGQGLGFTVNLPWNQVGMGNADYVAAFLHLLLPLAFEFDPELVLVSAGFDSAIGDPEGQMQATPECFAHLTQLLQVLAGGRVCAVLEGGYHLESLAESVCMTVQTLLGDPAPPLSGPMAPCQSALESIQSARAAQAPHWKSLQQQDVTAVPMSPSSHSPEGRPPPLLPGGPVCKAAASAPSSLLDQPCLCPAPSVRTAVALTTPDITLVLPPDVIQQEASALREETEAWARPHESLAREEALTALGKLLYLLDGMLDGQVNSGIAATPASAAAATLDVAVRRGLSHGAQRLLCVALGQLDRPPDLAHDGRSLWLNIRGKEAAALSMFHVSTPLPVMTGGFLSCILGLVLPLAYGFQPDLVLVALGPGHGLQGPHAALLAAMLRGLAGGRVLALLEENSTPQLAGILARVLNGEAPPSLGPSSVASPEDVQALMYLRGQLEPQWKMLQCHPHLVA
Sequence of CYP1A2 (P05177 whole entry): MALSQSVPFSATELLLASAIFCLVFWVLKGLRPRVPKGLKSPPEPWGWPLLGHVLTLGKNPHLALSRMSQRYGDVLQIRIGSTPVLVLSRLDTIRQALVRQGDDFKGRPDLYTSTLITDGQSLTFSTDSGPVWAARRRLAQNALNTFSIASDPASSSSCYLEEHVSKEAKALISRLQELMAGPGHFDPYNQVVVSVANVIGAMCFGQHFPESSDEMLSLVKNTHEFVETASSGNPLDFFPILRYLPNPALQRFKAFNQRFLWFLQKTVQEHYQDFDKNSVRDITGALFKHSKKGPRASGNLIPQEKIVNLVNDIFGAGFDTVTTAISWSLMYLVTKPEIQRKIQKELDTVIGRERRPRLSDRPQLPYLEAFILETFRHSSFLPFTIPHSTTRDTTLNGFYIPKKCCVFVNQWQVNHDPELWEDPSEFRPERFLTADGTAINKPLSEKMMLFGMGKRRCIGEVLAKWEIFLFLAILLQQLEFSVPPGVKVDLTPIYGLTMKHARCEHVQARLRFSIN

In the case of `C[S@@](=N)(=O)c1ccc(C(=O)Nc2cc(-c3ccc(F)cc3)ccc2N)cc1` [Compound I, (R)—N-(4-amino-4′-fluoro-[1,1′-biphenyl]-3-yl)-4-(S-methylsulfonimidoyl)benzamide], the “selectivity for HDAC1 compared to HDAC3” value at HDAC1 is more than 10 fold. For the same molecule, in the series “Predicted human PK”, the “% F” value is 78%, the MRT was 9.5 h and the T1/2 is 6.6 h. Besides, the “Total AUC” value in “Predicted human PK” (dose predicted to be efficacious) is 6300 ng·h/mL. In addition, the “H3K9Ac accumulation in MC38 tumor tissue” value with H3K9Ac was “dose dependent accumulation of H3K9Ac”. Further, the solubility in [1] was not below 100 µM. Further, the “selectivity for CoREST deacetylase compared to NCOR, NuRD, and Sin3” value with CoREST complex is listed as “significant selectivity; also recorded: selective for the CoREST complex”. Further, in series [2], the Non-tolerated exposures entry is reported as “over 150 mg/kg”. Also, at CYP1A2, the half-life was more than 1 h. Moreover, at CYP2C9, the half-life was more than 1 h. The same molecule returned an IC50 on HDAC10 of more than 30 µM. For the same molecule, in series [3] (setting [4]), the ORR % was 38% and the TGI % was found to be 70%. For the same molecule, in series [3] (setting [5]), the ORR % is given as 0% and the TGI % is given as 39%. Moreover, the “resistance to immune checkpoint blockade driven by loss of STK11” value in series [3] (tumor models for colon adenocarcinoma and colorectal carcinoma (Examples 1 and 5)) is given as “reverses resistance to immune checkpoint blockade”.

In general, MRT refers to the average time that molecules of a dose stay in the body. A word on the solubility: it is the dissolved amount per volume that the medium holds. A lower solubility goes with a poorly soluble substance. In general, IC50 refers to the concentration needed to halve the response being measured.
